Tests used:
[1] = Displacement of [3H]DTG from sigma2 receptor in rat liver homogenate in presence of (+)-pentazocine; format: tissue-based
[2] = Selectivity ratio of Ki for rat sigma2 receptor to Ki for guinea pig sigma1 receptor
[3] = target: Sigma non-opioid intracellular receptor 1 (Cavia porcellus, UniProt Q60492); test: Displacement of [3H](+)-pentazocine from sigma1 receptor in guinea pig brain homogenate; format: tissue-based
[4] = Binding affinity to sigma2 receptor; design: species or system Homo sapiens
[5] = target: Sigma non-opioid intracellular receptor 1 (Rattus norvegicus, UniProt Q9R0C9); test: biochemical
Description: Displacement of [3H](+)-pentazocine from sigma1 receptor in rat brain homogenate after 120 mins

[6] = Binding affinity to sigma1 receptor
[7] = Binding affinity to sigma2 receptor in guinea pig brain homogenate; format: tissue-based, Cavia porcellus

Sequence of Sigma non-opioid intracellular receptor 1 (Cavia porcellus, UniProt Q60492) (Q60492 whole entry): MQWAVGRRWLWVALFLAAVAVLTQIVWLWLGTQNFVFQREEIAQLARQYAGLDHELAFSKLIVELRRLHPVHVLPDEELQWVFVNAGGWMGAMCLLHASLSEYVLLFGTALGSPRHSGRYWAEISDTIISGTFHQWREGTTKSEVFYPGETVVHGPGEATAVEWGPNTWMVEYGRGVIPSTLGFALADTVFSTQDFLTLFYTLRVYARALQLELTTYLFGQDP
Sequence of Sigma non-opioid intracellular receptor 1 (Rattus norvegicus, UniProt Q9R0C9) (Q9R0C9 whole entry): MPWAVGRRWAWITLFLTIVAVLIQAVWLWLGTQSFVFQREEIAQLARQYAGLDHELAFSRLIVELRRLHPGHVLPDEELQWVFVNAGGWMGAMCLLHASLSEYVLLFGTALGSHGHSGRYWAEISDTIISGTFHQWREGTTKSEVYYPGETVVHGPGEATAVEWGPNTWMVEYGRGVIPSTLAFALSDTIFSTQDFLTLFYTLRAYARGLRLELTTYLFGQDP

SMILES	Ki [1]	Ratio Ki [2]	Ki [3]	Ki [4]	Ki [5]	Ki [6]	Ki [7]
CCOc1ccc(CN2CCCN(Cc3cc4ccccc4o3)CC2)cc1	292 nM	1500	0.194 nM	–	–	–	–
CCOc1ccc(CN2CCN(Cc3cc4ccccc4o3)C2)cc1	2380 nM	123	19.3 nM	–	–	–	–
c1ccc(CN2CCN(Cc3ccccc3)CC2)cc1	–	–	–	1270 nM	–	–	–
FCCOc1ccc(CN2CCN(Cc3cc4ccccc4o3)C2)cc1	1530 nM	237	6.45 nM	–	–	–	–
COc1cccc2c1CCCC2CCCN1CCN(Cc2ccccc2)CC1 (stereo unspecified)	–	–	–	1870 nM	–	–	–
COc1ccc(CN2CCCN(Cc3cc4ccccc4o3)CC2)cc1	119 nM	220	0.54 nM	–	–	–	–
FCCCOc1ccc(CN2CCN(Cc3cc4ccccc4o3)C2)cc1	3640 nM	175	20.8 nM	–	–	–	–
S=c1sc2ccccc2n1CCCCN1CCN(C2CCCCC2)CC1	–	–	–	–	1.3 nM	–	–
FCCOc1ccc(CN2CCCN(Cc3cc4ccccc4o3)CC2)cc1	88.1 nM	881	0.1 nM	–	–	–	–
CCOc1ccc(CN2CCN(Cc3cc4ccccc4o3)CC2)cc1	1120 nM	6190	0.18 nM	–	–	–	–
COc1cccc(CCN2CCN(CCCc3ccccc3)CC2)c1	–	–	–	10.2 nM	–	1.4 nM	–
FCCOc1ccc(CN2CCN(Cc3cc4ccccc4o3)CC2)cc1	807 nM	16100	0.05 nM	–	–	–	–
COc1ccc(CN2CCN(Cc3cc4ccccc4o3)CC2)cc1	167 nM	929	0.18 nM	–	–	–	–
CCCOc1ccc(CN2CCN(Cc3cc4ccccc4o3)CC2)cc1	1470 nM	143	10.3 nM	–	–	–	–
CCCOc1ccc(CN2CCCN(Cc3cc4ccccc4o3)CC2)cc1	700 nM	4600	0.152 nM	–	–	–	–
COc1ccc(CCN2CCN(CCCc3ccccc3)CC2)cc1OC [[11C]SA4503]	–	–	–	–	–	–	63 nM
CCCOc1ccc(CN2CCN(Cc3cc4ccccc4o3)C2)cc1	6470 nM	121	53.5 nM	–	–	–	–
FCCCOc1ccc(CN2CCN(Cc3cc4ccccc4o3)CC2)cc1	1360 nM	842	1.61 nM	–	–	–	–
FCCCOc1ccc(CN2CCCN(Cc3cc4ccccc4o3)CC2)cc1	1380 nM	11500	0.12 nM	–	–	–	–
COc1ccc(CN2CCN(Cc3cc4ccccc4o3)C2)cc1	2500 nM	58	43 nM	–	–	–	–

— ChEMBL document CHEMBL2069270, “Exploration of ring size in a series of cyclic vicinal diamines with σ₁ receptor affinity” (Bioorg Med Chem Lett, 2012)
